Consider one compound from patent EP2752664A1, “Label-free method for the detection of analytes” (priority 2013, dated 2014).

Like-named read-outs stand apart in the source and are kept apart here.

Test [1] addresses T1, mannose/Concanavalin A interaction (Canavalia ensiformis, UniProt P02866). The test can be described thus: Inhibition competition assay with hydrogel particles, surface energy read out via RICM (SCP-RICM, inventive method). The note with it: for IC50: read-out: IC50 value determined using an inventive method. The format is binding.
Test [2] deals with T1, mannose/Concanavalin A interaction. The note with it: SPR measurements reported earlier; PAA Man values normalized per mannose; read-out: IC50 value determined using SPR inhibition assay; cited from earlier work. For orientation: SPR reads the build-up and loss of mass on a sensor chip optically.

The IC50 is the concentration that gives 50% inhibition. On to `CO[C@H]1O[C@H](CO)[C@@H](O)[C@H](O)[C@@H]1O` [α-methyl-D-mannose], for which the “contact areas of functionalized hydrogel particles and surface energies” value in test [1] (10 mM analyte added into the measurement cell (critical level of competitive analyte)) is on record as “completely vanish”. For the same compound, the surface energy entry in test [1] (analyte at lower concentrations up to 5 mM, particles still in contact with the carrier surface) is given as “gradually decreases with the concentration of added analyte”. The half-inhibitory concentration (IC50) in test [1] (inverted system: PEG-ConA particles against a mannose functionalized surface (Fig. 7b)) is 649 ± 76.8 µM; in test [1] (mannose functionalized hydrogel particles, ConA immobilized on the solid carrier (Fig. 7a), Hill fit of normalized surface energy, PAA Man values normalized per mannose), 618 ± 19.1 µM; in test [2] it was 750 µM.
